The structures appear in SMILES notation. Where two headings read alike, the source gives them in different places.

The source of these data is patent US20140113899A1 (priority 2011, published 2014).

For test [1], the system named is Fusarium graminearum. It is filed as in vivo. To be noted: wettable powder containing only the compound, 500 mg/L, sprayed at 1,000 L/ha; fourth to seventh days after inoculation.
Test [2] deals with Pseudocercoporella herpotrichoides. Put plainly: Test Example 16: in vitro antimicrobial activity test with thiophanate-methyl and Compound I-1. The class given is cell-based.
Test [3] concerns Fusarium graminearum. It is filed as in vivo.
The next test has as its system Glomerella cingulata. Briefly: Test Example 4: in vitro antimicrobial activity test with bixafen and Compound I-1. It is filed as cell-based.
Another test concerns Alternaria alternata. Put plainly: Test Example 15: in vitro antimicrobial activity test with fenpropimorph and Compound I-1. The class given is cell-based. The text has this: Then, a mycelial growth inhibition ratio against Alternaria alternata was obtained.
For test [4], the system named is Fusarium graminearum. It is filed as in vivo. This is another data set of the same source.
A further test has as its system Botrytis cinere. Briefly: Test Example 11: in vitro antimicrobial activity test with azoxystrobin and Compound I-1. The class given is cell-based. The text has this: Then, a mycelial growth inhibition ratio against Botrytis cinere was obtained.
Another test has as its system Gaeumannomyces graminis. Put plainly: Test Example 13: in vitro antimicrobial activity test with prochloraz and Compound I-1. The class given is cell-based. An excerpt:
Then, a mycelial growth inhibition ratio against Gaeumannomyces graminis was obtained.

The next test has as its system Puccinia recondida. Put plainly: Test Example 7: controlling effect of isopyrazam and Compound I-1 on wheat brown rust. The class given is in vivo. To be noted: Isopyrazam 3.125 g/ha alone. How it is done: Isopyrazam and Compound I-1 were mixed at a given ratio and a test for a cooperative effect against wheat brown rust was carried out. First, a chemical suspension containing isopyrazam and Compound I-1 were prepared and sprayed on a pot of a wheat plant at two leaves stage so that thus sprayed isopyrazam and Compound I-1 became a predetermined dosage. Then, after the pot was left for approximately one hour at a room temperature so that the plant body dries, Puccinia recondida was inoculated by spraying an urediniospore suspended solution (1×10^5/ml) of Puccinia recondida. Then, the pot was kept in a wet chamber at 20° C. for 15 hours, and after 14 days, onset of disease was examined by a disease-onset area index. Here, the test was conducted by use of one plot pot.

The subject of test [5] is Pyricularia oryzae. The class given is cell-based.
Another test has as its system Rhizoctonia solani. Briefly: Test Example 18: in vitro antimicrobial activity test with chlorothalonil and Compound I-1. The class given is cell-based.
Test [6] has as its system Pyricularia oryzae. It is filed as cell-based. This is another data set of the same source.
In test [7] the test system is Fusarium graminearum. The class given is in vivo. This is another data set of the same source.
Test [8] relates to Microdocum nivale. Briefly: Test Example 10: in vitro antimicrobial activity test with penthiopyrad and Compound I-1.
Description: (§1) In the test, a flora disk of 4 mm in diameter was cut from an area around a colony of Microdocum nivale pre-cultured in advance in a pre-culture PDA medium, and Microdocum nivale was inoculated on the PDA medium where chemical agents were mixed. After culturing at 25° C. for 3 days, a diameter of a grown colony was measured. Then, a mycelial growth inhibition ratio was calculated by comparing the diameter of this grown colony with a diameter of a colony on a medium without the chemical agents. As in Test Example 1, a cooperative effect was judged by use of Colby's formula.
Then, a mycelial growth inhibition ratio against Microdocum nivale was obtained.
Test [9] relates to Microdocum nivale. Briefly: Test Example 14: in vitro antimicrobial activity test with prothioconazole and Compound I-1.
Another test deals with Pythium aphanidermatum. Put plainly: Test Example 19: in vitro antimicrobial activity test with metalaxyl and Compound I-1. It is filed as cell-based.
Test [10] has as its system Microdocum nivale. Put plainly: Test Example 9: in vitro antimicrobial activity test with benodanil and Compound I-1.
Description: as §1
[11] abbreviates: compound 25 g/ha alone (Metconazole 0 g/ha).
[12] abbreviates: compound 50 g/ha alone (Metconazole 0 g/ha).
Where [13] appears, read: compound 75 g/ha alone (Metconazole 0 g/ha).

For the compound `OC(CC1CC1(Br)Br)(Cn1cncn1)C1(Cl)CC1` (stereo not drawn) [Compound XVII-2, 2-(1-chlorocyclopropyl)-1-(2,2-dibromocyclopropyl)-3-(1H-1,2,4-triazole-1-yl)propane-2-ol], in the test with Fusarium graminearum [1], the protective value is listed as at least 90%.
Turning to `COC(=O)NC(=S)Nc1ccccc1NC(=S)NC(=O)OC` [Thiophanate-methyl], the entries for the “Mycelial Growth Inhibition Ratio % Measured Value” in [2] (Thiophanate-methyl 0.0393 ppm alone), in test [2] (Thiophanate-methyl 0.1575 ppm alone) and in test [2] (Thiophanate-methyl 0.63 ppm alone) were 0%, 0% and 52%, respectively.
`O=C(Nc1ccccc1-c1ccc(Cl)cc1)c1cccnc1Cl` [Boscalid]: the “Actual Protective Value” in the test on Fusarium graminearum [3] (Boscalid 20 g/ha alone) is 0; in the test on Fusarium graminearum [3] (Boscalid 40 g/ha alone), 4; in the test on Fusarium graminearum [3] (Boscalid 60 g/ha alone), 15; in the test with Fusarium graminearum [3] (Boscalid 80 g/ha alone), 8.
For the compound `Cn1cc(C(=O)Nc2ccc(F)cc2-c2ccc(Cl)c(Cl)c2)c(C(F)F)n1` [Bixafen], the “Mycelial Growth Inhibition Ratio % Measured Value” in the test on Glomerella cingulata (Bixafen 0.0393 ppm alone) is 5%; with Glomerella cingulata (Bixafen 0.1575 ppm alone), 7%; with Glomerella cingulata (Bixafen 0.63 ppm alone), 7%; with Glomerella cingulata (Bixafen 2.5 ppm alone) it was 16%; in the test on Glomerella cingulata (Bixafen 10 ppm alone), 38%.
`CC(Cc1ccc(C(C)(C)C)cc1)CN1C[C@@H](C)O[C@@H](C)C1` (stereo partly drawn) [Fenpropimorph]: the “Mycelial Growth Inhibition Ratio % Measured Value” in the test on Alternaria alternata (Fenpropimorph 0.0393 ppm alone) and in the test with Alternaria alternata (Fenpropimorph 0.1575 ppm alone) was 0% each time.
Take `CC1(C)CCC(Cc2ccc(Cl)cc2)C1(O)Cn1cncn1` (stereo not drawn) [Metconazole]: the figures for the “Actual Protective Value” in the test with Fusarium graminearum [4] (Metconazole 10 g/ha alone) and in the test on Fusarium graminearum [4] (Metconazole 20 g/ha alone) were 13.9 and 26.7, respectively.
Turning to `CO/C=C(/C(=O)OC)c1ccccc1Oc1cc(Oc2ccccc2C#N)ncn1` [Azoxystrobin], the “Mycelial Growth Inhibition Ratio % Measured Value” came to 41% in the test on Botrytis cinere (Azoxystrobin 0.1575 ppm alone), 60% in the test with Botrytis cinere (Azoxystrobin 0.63 ppm alone), 69% in the test on Botrytis cinere (Azoxystrobin 2.5 ppm alone) and 71% in the test on Botrytis cinere (Azoxystrobin 10 ppm alone).
Regarding `C[C@]1(CCl)CC[C@@H](Cc2ccccc2)[C@]1(O)Cn1cncn1` (racemic) [Compound I-12, (1RS,2SR,5SR)-2-chloromethyl-5-benzyl-2-methyl-1-(1H-1,2,4-triazole-1-ylmethyl)cyclopentanol], the “Actual Protective Value” came to 40.0 in the test on Fusarium graminearum [4] (setting [11]), 65.6 in the test on Fusarium graminearum [4] (setting [12]) and 75.6 in the test on Fusarium graminearum [4] (setting [13]).
`CCCN(CCOc1c(Cl)cc(Cl)cc1Cl)C(=O)n1ccnc1` [Prochloraz]: the “Mycelial Growth Inhibition Ratio % Measured Value” was 12% in the test with Gaeumannomyces graminis (Prochloraz 0.0393 ppm alone), 69% in the test on Gaeumannomyces graminis (Prochloraz 0.1575 ppm alone) and 98% in the test on Gaeumannomyces graminis (Prochloraz 0.63 ppm alone).
As for `CC(C)C1C2CCC1c1c(NC(=O)c3cn(C)nc3C(F)F)cccc12` (stereo not drawn) [Isopyrazam], in the test on Puccinia recondida, the “Actual Protective Value” came out at 57.
For `C[C@]1(CCl)CC[C@@H](Cc2ccc(F)cc2)[C@]1(O)Cn1cncn1` (racemic) [Compound I-11, (1RS,2SR,5 SR)-2-chloromethyl-5-(4-fluorobenzyl)-2-methyl-1-(1H-1,2,4-triazole-1-ylmethyl)cyclopentanol], the entries for the “Actual Protective Value” in the test on Fusarium graminearum [4] (setting [11]), in the test on Fusarium graminearum [4] (setting [12]) and in the test on Fusarium graminearum [4] (setting [13]) were 25.6, 56.7 and 66.7, respectively.
Consider `CC(C)C1CCC(Cc2ccc(Cl)cc2)C1(O)Cn1cncn1` (stereo not drawn) [Ipconazole], for which the figures for the “Mycelial Growth Inhibition Ratio % Measured Value” with Pyricularia oryzae [5] (Ipconazole 0.0393 ppm alone), in the test with Pyricularia oryzae [5] (Ipconazole 0.1575 ppm alone) and with Pyricularia oryzae [5] (Ipconazole 0.63 ppm alone) were 11%, 33% and 72%, respectively.
Regarding `N#Cc1c(Cl)c(Cl)c(Cl)c(C#N)c1Cl` [Chlorothalonil], the “Mycelial Growth Inhibition Ratio % Measured Value” was 0% with Rhizoctonia solani (Chlorothalonil 0.0393 ppm alone); 15% with Rhizoctonia solani (Chlorothalonil 0.1575 ppm alone); 74% with Rhizoctonia solani (Chlorothalonil 0.63 ppm alone); 84% in the test on Rhizoctonia solani (Chlorothalonil 2.5 ppm alone); 98% in the test with Rhizoctonia solani (Chlorothalonil 10 ppm alone).
Regarding `CC(C)(C)C(O)(CCc1ccc(Cl)cc1)Cn1cncn1` (stereo not drawn) [Tebuconazole], the “Mycelial Growth Inhibition Ratio % Measured Value” with Pyricularia oryzae [6] (Tebuconazole 0.0393 ppm alone) was determined as 3%; in the test with Pyricularia oryzae [6] (Tebuconazole 0.1575 ppm alone), 12%; with Pyricularia oryzae [6] (Tebuconazole 0.63 ppm alone), 50%.
With `COC(=O)N(OC)c1ccccc1COc1ccn(-c2ccc(Cl)cc2)n1` [Pyraclostrobin], the “Actual Protective Value” in the test with Fusarium graminearum [7] (Pyraclostrobin 10 g/ha alone) was determined as 10.6; with Fusarium graminearum [7] (Pyraclostrobin 20 g/ha alone), 23.5; in the test on Fusarium graminearum [7] (Pyraclostrobin 30 g/ha alone) it was 36.5.
Take `CC(C)CC(C)c1sccc1NC(=O)c1cn(C)nc1C(F)(F)F` (stereo not drawn) [Penthiopyrad]: the “Mycelial Growth Inhibition Ratio % Measured Value” in the test on Microdocum nivale [8] (Penthiopyrad 0.0393 ppm alone) was found to be 2%; in the test on Microdocum nivale [8] (Penthiopyrad 0.1575 ppm alone) it was 2%; in the test on Microdocum nivale [8] (Penthiopyrad 0.63 ppm alone), 2%; in the test on Microdocum nivale [8] (Penthiopyrad 2.5 ppm alone), 7%; with Microdocum nivale [8] (Penthiopyrad 10 ppm alone) it was 36%.
As to `OC(Cc1ccccc1Cl)(Cn1nc[nH]c1=S)C1(Cl)CC1` (stereo not drawn) [Prothioconazole], the “Mycelial Growth Inhibition Ratio % Measured Value” is listed as 11% in the test with Microdocum nivale [9] (Prothioconazole 0.1575 ppm alone), 34% in the test with Microdocum nivale [9] (Prothioconazole 0.63 ppm alone) and 76% in the test with Microdocum nivale [9] (Prothioconazole 2.5 ppm alone).
For `COCC(=O)N(c1c(C)cccc1C)C(C)C(=O)OC` (stereo not drawn) [Metalaxyl], the “Mycelial Growth Inhibition Ratio % Measured Value” with Pythium aphanidermatum (Metalaxyl 0.0393 ppm alone) is reported as 3%; in the test on Pythium aphanidermatum (Metalaxyl 0.1575 ppm alone), 7%; with Pythium aphanidermatum (Metalaxyl 0.63 ppm alone), 12%; with Pythium aphanidermatum (Metalaxyl 2.5 ppm alone), 14%; in the test on Pythium aphanidermatum (Metalaxyl 10 ppm alone) it was 25%.
Regarding `O=C(Nc1ccccc1)c1ccccc1I` [Benodanil], the “Mycelial Growth Inhibition Ratio % Measured Value” was found to be 0% with Microdocum nivale [10] (Benodanil 0.0393 ppm alone); 0% in the test on Microdocum nivale [10] (Benodanil 0.1575 ppm alone); 0% with Microdocum nivale [10] (Benodanil 0.63 ppm alone); 0% in the test with Microdocum nivale [10] (Benodanil 2.5 ppm alone); 4% in the test on Microdocum nivale [10] (Benodanil 10 ppm alone).
